Here are results for 10 compounds from patent US11407831B2, “Pharmaceutical composition administered in combination with substituted dihydropyrrolopyrazole compound and immunotherapeutic agent” (UBE INDUSTRIES, LTD., priority 2017, dated 2022).

The test system of assay [1] is Mouse melanoma cells (B16F10). In words: Mouse Melanoma (B16F10) Cell Growth Inhibition Test. The conditions noted are these: B16-F10, 72 h, 3 days culture, CellTiter-Glo (ATP). The class given is cell-based. As to the method: Mouse melanoma cells (B16F10) (Cell Resource Center for Biomedical Research, Institute of Development, Aging and Cancer, Tohoku University, Cat. No. TKG0348) were cultured in DMEM medium (REF. 11965-092 manufactured by GIBCO/Thermo Fisher Scientific Inc.) containing 10% FBS (REF. 10082-147 manufactured by GIBCO/Thermo Fisher Scientific Inc.), 1% penicillin/streptomycin/amphotericin B (REF. 15240-096 manufactured by GIBCO/Thermo Fisher Scientific Inc.), and 1 mM sodium pyruvate (REF. 11360-070 manufactured by GIBCO/Thermo Fisher Scientific Inc.) and inoculated at 0.5 to 2.0×10^3 cells/well to a 96-well plate. After overnight culture in a carbon dioxide incubator, culture was further performed for 3 days in a medium containing a solution of a test compound in DMSO (final DMSO concentration: 0.1%), and then, the amount of ATP was measured using CellTiter-Glo (manufactured by Promega Corp.).
The rate of inhibition of cell growth at each concentration was calculated from the test compound concentration and the amount of ATP, and the concentration of the test compound necessary for inhibiting 50% of cell growth (GI50 value) was calculated by using EXSUS (version 8.1.0, manufactured by CAC Croit Corp.).
In general terms: Cellular ATP, detected with luciferase, serves as a proxy for viable cell number.

Assay [2] relates to Mouse melanoma cells (B16F10) subcutaneously transplanted. In words: In Vivo Tumor Growth Inhibition Test in Mouse Melanoma Cell (B16F10)-Subcutaneously Transplanted Mouse. The conditions noted are these: day 7. Details: species or system C57BL/6 mice. The method, then: Mouse melanoma cells (B16F10) (Cell Resource Center for Biomedical Research, Institute of Development, Aging and Cancer, Tohoku University, Cat. No. TKG0348) were cultured in DMEM medium (REF. 11965-092 manufactured by GIBCO/Thermo Fisher Scientific Inc.) containing 10% FBS (REF. 10082-147 manufactured by GIBCO/Thermo Fisher Scientific Inc.), 1% penicillin/streptomycin/amphotericin B (REF. 15240-096 manufactured by GIBCO/Thermo Fisher Scientific Inc.), and 1 mM sodium pyruvate (REF. 11360-070 manufactured by GIBCO/Thermo Fisher Scientific Inc.) and adjusted to 1.0×10^7 cells/mL with PBS (REF. 10010-031 manufactured by GIBCO/Thermo Fisher Scientific Inc.). The prepared cell suspension was subcutaneously injected at 0.1 mL/mouse to the right abdomens of C57BL/6 mice (female, supplied by Japan SLC, Inc.). After rearing for a certain period, the long diameter (mm) and short diameter (mm) of tumor were measured with electronic calipers (manufactured by Mitsutoyo Corp., Cat. 500-712-10), and the tumor volume was calculated according to the following expression: Tumor volume (mm^3)=(Long diameter)×(Short diameter)×(Short diameter)×0.5
Individuals whose tumor volume was within the range of 50 to 200 mm^3 were selected and grouped such that the tumor volume was almost equivalent, then an anti-PD-1 antibody (manufactured by Bio X Cell) at 250 μg/mouse or Rat IgG2a (manufactured by Bio X Cell) at 250 μg/mouse was intraperitoneally administered, and further a test compound (25 mg/kg or 100 mg/kg) or only a solvent was orally administered to each group. The initial day of the start of administration was defined as day 0, and the anti-PD-1 antibody or Rat IgG2a were intraperitoneally administered on day 0 and day 3, and the test compound or only the solvent was orally administered once a day from day 0 to day 6. On day 7, the long diameter and short diameter of tumor were measured, and the tumor volume was calculated.

The mark [3] stands for this setting: test compound oral (25 mg/kg or 100 mg/kg) once a day day 0 to 6 + Rat IgG2a 250 μg/mouse i.p. day 0 and 3, vs Rat IgG2a + solvent group.
[4] abbreviates: test compound oral (25 mg/kg or 100 mg/kg) once a day day 0 to 6 in combination with anti-PD-1 antibody 250 μg/mouse i.p. day 0 and 3.

Take `Cc1cc2ccc(F)c(NC(=O)N3Cc4c(NC(=O)C5([Si](C)(C)C)CCC5)n[nH]c4C3(C)C)c2o1` [II-1059, N-(6-Fluoro-2-methylbenzofuran-7-yl)-6,6-dimethyl-3-[1-(trimethylsilyl)cyclobutanecarboxamido]-4,6-dihydropyrrolo[3,4-c]pyrazole-5(1H)-carboxamide]: the GI50 (commonly the concentration that inhibits growth by half) in assay [1] was at most 2 µM.
For the compound `CC1(C)c2[nH]nc(NC(=O)C3([Si](C)(C)C)CCC3)c2CN1C(=O)Nc1c(F)ccc2cc(Cl)oc12` [II-1063, N-(2-Chloro-6-fluorobenzofuran-7-yl)-6,6-dimethyl-3-[1-(trimethylsilyl)cyclobutanecarboxamido]-4,6-dihydropyrrolo[3,4-c]pyrazole-5(1H)-carboxamide], the “Rate of inhibition of increase in tumor volume” value (from here on “Rate of inhibition of increase”) is “D (10% or more and less than 30%)” in assay [2] (setting [3]); “B (50% or more and less than 70%)” in assay [2] (setting [4]). The GI50 in assay [1] is at most 2 µM.
In the case of `Cc1cccc(Cl)c1NC(=O)N1Cc2c(NC(=O)C3([Si](C)(C)C)CCC3)n[nH]c2C1(C)C` [II-215, N-(2-Chloro-6-methylphenyl)-6,6-dimethyl-3-[1-(trimethylsilyl)cyclobutanecarboxamido]-4,6-dihydropyrrolo[3,4-c]pyrazole-5(1H)-carboxamide], the “Rate of inhibition of increase” value in assay [2] (setting [3]) was “B (50% or more and less than 70%)”; in assay [2] (setting [4]), “A (70% or more and less than 90%)”. The compound further had a GI50 in assay [1] of at most 2 µM.
Consider `Cc1ccc(C)c(NC(=O)N2Cc3c(NC(=O)C4([Si](C)(C)C)CCC4)n[nH]c3C2(C)C)c1` [II-379, N-(2,5-Dimethylphenyl)-6,6-dimethyl-3-[1-(trimethylsilyl)cyclobutanecarboxamido]-4,6-dihydropyrrolo[3,4-c]pyrazole-5(1H)-carboxamide], for which the “Rate of inhibition of increase” value is “B (50% or more and less than 70%)” in assay [2] (setting [3]); “A (70% or more and less than 90%)” in assay [2] (setting [4]). The same compound returned a concentration for 50% growth inhibition (GI50) in assay [1] of at most 2 µM.
On to `CC1(C)c2[nH]nc(NC(=O)C3([Si](C)(C)C)CCC3)c2CN1C(=O)Nc1c(F)cccc1Cl` [II-113, N-(2-Chloro-6-fluorophenyl)-6,6-dimethyl-3-[1-(trimethylsilyl)cyclobutanecarboxamido]-4,6-dihydropyrrolo[3,4-c]pyrazole-5(1H)-carboxamide], for which, in assay [1], the GI50 is at most 2 µM.
Turning to `Cc1ccccc1NC(=O)N1Cc2c(NC(=O)C3([Si](C)(C)C)CCC3)n[nH]c2C1(C)C` [II-21, 6,6-Dimethyl-N-(o-tolyl)-3-[1-(trimethylsilyl)cyclobutanecarboxamido]-4,6-dihydropyrrolo[3,4-c]pyrazole-5(1H)-carboxamide], in assay [1], the GI50 was at most 2 µM.
As to `Cc1cccc(Br)c1NC(=O)N1Cc2c(NC(=O)C3([Si](C)(C)C)CCC3)n[nH]c2C1(C)C` [II-299, N-(2-Bromo-6-methylphenyl)-6,6-dimethyl-3-[1-(trimethylsilyl)cyclobutanecarboxamido]-4,6-dihydropyrrolo[3,4-c]pyrazole-5(1H)-carboxamide], the GI50 in assay [1] is at most 2 µM.
With `CC1(C)c2[nH]nc(NC(=O)C3([Si](C)(C)C)CCC3)c2CN1C(=O)Nc1c(F)ccc2ccoc12` [II-1049, N-(6-Fluorobenzofuran-7-yl)-6,6-dimethyl-3-[1-(trimethylsilyl)cyclobutanecarboxamido]-4,6-dihydropyrrolo[3,4-c]pyrazole-5(1H)-carboxamide], in assay [1], the GI50 was at most 2 µM.
`Cc1ccc(F)cc1NC(=O)N1Cc2c(NC(=O)C3([Si](C)(C)C)CCC3)n[nH]c2C1(C)C` [II-361, N-(5-Fluoro-2-methylphenyl)-6,6-dimethyl-3-[1-(trimethylsilyl)cyclobutanecarboxamido]-4,6-dihydropyrrolo[3,4-c]pyrazole-5(1H)-carboxamide] displayed a GI50 in assay [1] of at most 2 µM.
Still for that read-out and setting: in the case of `Cc1ccc(C)c(NC(=O)N2Cc3c(NC(=O)C4([Si](C)(C)C)CCC4)n[nH]c3C2(C)C)c1F` [II-669, N-(2-Fluoro-3,6-dimethylphenyl)-6,6-dimethyl-3-[1-(trimethylsilyl)cyclobutanecarboxamido]-4,6-dihydropyrrolo[3,4-c]pyrazole-5(1H)-carboxamide] it was at most 2 µM.
